In US6525001B1, “Substituted pyrimidine and pyridine herbicides” (Mid-American Commercialization Corporation, priority 1997, dated 2003):

What was measured:
Format in all cases: in vivo
Parameters in all cases: key: 0 is no effect; 10 is complete control
[1] = tested on: smallflower flatsedge (Cyperus difformis); assay: Test B flood test
In short: (§1)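 Flood test on plants grown to the 2-leaf stage; treated plants kept in greenhouse twelve to sixteen days, then visually rated against controls on a 0 (no effect) to 10 (complete control) scale.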

rice (Oryza sativa) = assay: Test B flood test
In short: as §1

[2] = tested on: bamyardgrass (Echinochloa crus-galli); assay: Test B flood test
In short: as §1

[3] = tested on: duck salad (Heteranthera limosa); assay: Test B flood test
In short: as §1

[4] = tested on: bedstraw (Galium aparine); assay: Test B pre-/postemergence
Source text: (§2) Seeds of bedstraw (Galium aparine), blackgrass (Alopecurus myosuroides), broadleaf signalgrass (Brachiaria decumbens), cocklebur (Xanthium strumarium), corn (Zea mays), crabgrass (Digitaria sanguinalis), giant foxtail (Setaria faberii), lambsquarters (Chenopodium album), momingglory (Ipomoea hederacea), pigweed (Amaranthus retroflexus), rape (Brassica napus), soybean (Glycine max), sugar beet (Beta vulgaris), velvetleaf (Abutilon theophrasti), wheat (Triticum aestivum), wild oat (Avena fatua) and purple nutsedge (Cyperus rotundus) tubers were planted and treated preemergence with test chemicals formulated in a non-phytotoxic solvent mixture which included a surfactant.
(§3) At the same time, these crop and weed species were also treated with postemergence applications of test chemicals formulated in the same manner. Plants ranged in height from 2 to 18 cm (1- to 4-leaf stage) for postemergence treatments. Plant species in the flood test consisted of rice (Oryza sativa), smallflower flatsedge (Cyperus difformis), duck salad (Heteranthera limosa) and bamyardgrass (Echinochloa crus-galli) grown to the 2-leaf stage for testing. Treated plants and controls were maintained in a greenhouse for twelve to sixteen days, after which all species were compared to controls and visually evaluated. Plant response ratings, summarized in Table B, are based on a scale of 0 to 10 where 0 is no effect and 10 is complete control. A dash (−) response means no test result.

[5] = tested on: broadleaf signalgrass (Brachiaria decumbens); assay: Test B pre-/postemergence
Source text: as §2, §3

[6] = tested on: cocklebur (Xanthium strumarium); assay: Test B pre-/postemergence
Source text: as §2, §3

[7] = tested on: wheat (Triticum aestivum); assay: Test B pre-/postemergence
Source text: as §2, §3

[8] = tested on: velvetleaf (Abutilon theophrasti); assay: Test B pre-/postemergence
Source text: as §2, §3

[9] = tested on: giant foxtail (Setaria faberii); assay: Test B pre-/postemergence
Source text: as §2, §3

[10] = tested on: blackgrass (Alopecurus myosuroides); assay: Test B pre-/postemergence
Source text: as §2, §3

rape (Brassica napus) = assay: Test B pre-/postemergence
Source text: as §2, §3

corn (Zea mays) = assay: Test B pre-/postemergence
Source text: as §2, §3

wild oat (Avena fatua) = assay: Test B pre-/postemergence
Source text: as §2, §3

[11] = tested on: purple nutsedge (Cyperus rotundus); assay: Test B pre-/postemergence
Source text: as §2, §3

[12] = tested on: crabgrass (Digitaria sanguinalis); assay: Test B pre-/postemergence
Source text: as §2, §3

soybean (Glycine max) = assay: Test B pre-/postemergence
Source text: as §2, §3

[13] = tested on: momingglory (Ipomoea hederacea); assay: Test B pre-/postemergence
Source text: as §2, §3

[14] = tested on: sugar beet (Beta vulgaris); assay: Test B pre-/postemergence
Source text: as §2, §3

[15] = tested on: pigweed (Amaranthus retroflexus); assay: Test B pre-/postemergence
Source text: as §2, §3

[16] = Rate 62 g/ha, Postemergence (flood test)
[17] = Rate 125 g/ha, Postemergence, flood test
[18] = Rate 250 g/ha, Postemergence (flood test species)

For Cc1cnc(-c2cccc(C(F)(F)F)c2)nc1Cc1cccc(C(F)(F)F)c1 [Compound 24], the “Plant response rating, S. Flatsedge” value [1, 16] was 0, the “Plant response rating, S. Flatsedge” value [1, 17] was 1 and the “Plant response rating, S. Flatsedge” value [1, 18] was 3. For the same molecule, the “Plant response rating, Rice” value (rice (Oryza sativa); [16]) was 1, the “Plant response rating, Rice” value (rice (Oryza sativa); [17]) was 1 and the “Plant response rating, Rice” value (rice (Oryza sativa); [18]) was 2. For the same molecule, the “Plant response rating, Barnyardgrass” value [2, 16] was 2, the “Plant response rating, Barnyardgrass” value [2, 17] was 3 and the “Plant response rating, Barnyardgrass” value [2, 18] was 4. For the same molecule, the “Plant response rating, Ducksalad” value [3, 16] was 0, the “Plant response rating, Ducksalad” value [3, 17] was 2 and the “Plant response rating, Ducksalad” value [3, 18] was 3. For the same molecule, the “Plant response rating, Bedstraw” value ([4]; Rate 62 g/ha, Postemergence) was 4, the “Bedstraw plant response rating” value ([4]; Rate 62 g/ha, Preemergence) was 0 and the “Plant response rating, Bedstraw” value ([4]; Rate 125 g/ha, Postemergence) was 10. The “Bedstraw plant response rating” value ([4]; Rate 125 g/ha, Preemergence) was 1, the “Plant response rating, Bedstraw” value ([4]; Rate 250 g/ha, Postemergence) was 10 and the “Plant response rating, Bedstraw” value ([4]; Rate 250 g/ha, Preemergence) was 1. The “Plant response rating, B. signalgrass” value ([5]; Rate 62 g/ha, Postemergence) was 2, the “B. signalgrass plant response rating” value ([5]; Rate 62 g/ha, Preemergence) was 2 and the “Plant response rating, B. signalgrass” value ([5]; Rate 125 g/ha, Postemergence) was 2. The “B. signalgrass plant response rating” value ([5]; Rate 125 g/ha, Preemergence) was 3, the “Plant response rating, B. signalgrass” value ([5]; Rate 250 g/ha, Postemergence) was 3 and the “Plant response rating, B. signalgrass” value ([5]; Rate 250 g/ha, Preemergence) was 6. For the same molecule, the “Plant response rating, Cocklebur” value ([6]; Rate 62 g/ha, Postemergence) was 9, the “Cocklebur plant response rating” value ([6]; Rate 62 g/ha, Preemergence) was 0 and the “Plant response rating, Cocklebur” value ([6]; Rate 125 g/ha, Postemergence) was 9. For the same molecule, the “Cocklebur plant response rating” value ([6]; Rate 125 g/ha, Preemergence) was 0, the “Plant response rating, Cocklebur” value ([6]; Rate 250 g/ha, Postemergence) was 10 and the “Plant response rating, Cocklebur” value ([6]; Rate 250 g/ha, Preemergence) was 0. For the same molecule, the “Plant response rating, Wheat” value ([7]; Rate 62 g/ha, Postemergence) was 2, the “Wheat plant response rating” value ([7]; Rate 62 g/ha, Preemergence) was 0 and the “Plant response rating, Wheat” value ([7]; Rate 125 g/ha, Postemergence) was 2. The “Wheat plant response rating” value ([7]; Rate 125 g/ha, Preemergence) was 0, the “Plant response rating, Wheat” value ([7]; Rate 250 g/ha, Postemergence) was 3 and the “Plant response rating, Wheat” value ([7]; Rate 250 g/ha, Preemergence) was 0. The “Plant response rating, Velvetleaf” value ([8]; Rate 62 g/ha, Postemergence) was 2, the “Velvetleaf plant response rating” value ([8]; Rate 62 g/ha, Preemergence) was 0 and the “Plant response rating, Velvetleaf” value ([8]; Rate 125 g/ha, Postemergence) was 6. For the same molecule, the “Velvetleaf plant response rating” value ([8]; Rate 125 g/ha, Preemergence) was 1, the “Plant response rating, Velvetleaf” value ([8]; Rate 250 g/ha, Postemergence) was 7 and the “Plant response rating, Velvetleaf” value ([8]; Rate 250 g/ha, Preemergence) was 2. The “Plant response rating, Giant foxtail” value ([9]; Rate 62 g/ha, Postemergence) was 2, the “Giant foxtail plant response rating” value ([9]; Rate 62 g/ha, Preemergence) was 0 and the “Plant response rating, Giant foxtail” value ([9]; Rate 125 g/ha, Postemergence) was 2. For the same molecule, the “Giant foxtail plant response rating” value ([9]; Rate 125 g/ha, Preemergence) was 6, the “Plant response rating, Giant foxtail” value ([9]; Rate 250 g/ha, Postemergence) was 3 and the “Plant response rating, Giant foxtail” value ([9]; Rate 250 g/ha, Preemergence) was 6. For the same molecule, the “Plant response rating, Blackgrass” value ([10]; Rate 62 g/ha, Postemergence) was 2, the “Blackgrass plant response rating” value ([10]; Rate 62 g/ha, Preemergence) was 0 and the “Plant response rating, Blackgrass” value ([10]; Rate 125 g/ha, Postemergence) was 3. The “Blackgrass plant response rating” value ([10]; Rate 125 g/ha, Preemergence) was 2, the “Plant response rating, Blackgrass” value ([10]; Rate 250 g/ha, Postemergence) was 4 and the “Plant response rating, Blackgrass” value ([10]; Rate 250 g/ha, Preemergence) was 3. For the same molecule, the “Plant response rating, Rape” value (rape (Brassica napus); Rate 62 g/ha, Postemergence) was 8, the “Rape plant response rating” value (rape (Brassica napus); Rate 62 g/ha, Preemergence) was 0 and the “Plant response rating, Rape” value (rape (Brassica napus); Rate 125 g/ha, Postemergence) was 10. The “Rape plant response rating” value (rape (Brassica napus); Rate 125 g/ha, Preemergence) was 2, the “Plant response rating, Rape” value (rape (Brassica napus); Rate 250 g/ha, Postemergence) was 10 and the “Plant response rating, Rape” value (rape (Brassica napus); Rate 250 g/ha, Preemergence) was 4. For the same molecule, the “Plant response rating, Corn” value (corn (Zea mays); Rate 62 g/ha, Postemergence) was 1, the “Corn plant response rating” value (corn (Zea mays); Rate 62 g/ha, Preemergence) was 0 and the “Plant response rating, Corn” value (corn (Zea mays); Rate 125 g/ha, Postemergence) was 1. The “Corn plant response rating” value (corn (Zea mays); Rate 125 g/ha, Preemergence) was 0, the “Plant response rating, Corn” value (corn (Zea mays); Rate 250 g/ha, Postemergence) was 1 and the “Plant response rating, Corn” value (corn (Zea mays); Rate 250 g/ha, Preemergence) was 0. For the same molecule, the “Plant response rating, Wild oats” value (wild oat (Avena fatua); Rate 62 g/ha, Postemergence) was 2, the “Wild oats plant response rating” value (wild oat (Avena fatua); Rate 62 g/ha, Preemergence) was 0 and the “Plant response rating, Wild oats” value (wild oat (Avena fatua); Rate 125 g/ha, Postemergence) was 3. The “Wild oats plant response rating” value (wild oat (Avena fatua); Rate 125 g/ha, Preemergence) was 1, the “Plant response rating, Wild oats” value (wild oat (Avena fatua); Rate 250 g/ha, Postemergence) was 4 and the “Plant response rating, Wild oats” value (wild oat (Avena fatua); Rate 250 g/ha, Preemergence) was 4. The “Plant response rating, Nutsedge” value ([11]; Rate 62 g/ha, Postemergence) was 0, the “Nutsedge plant response rating” value ([11]; Rate 62 g/ha, Preemergence) was 0 and the “Plant response rating, Nutsedge” value ([11]; Rate 125 g/ha, Postemergence) was 1. The “Nutsedge plant response rating” value ([11]; Rate 125 g/ha, Preemergence) was 0, the “Plant response rating, Nutsedge” value ([11]; Rate 250 g/ha, Preemergence) was 0 and the “Plant response rating, Crabgrass” value ([12]; Rate 62 g/ha, Postemergence) was 8. The “Crabgrass plant response rating” value ([12]; Rate 62 g/ha, Preemergence) was 1, the “Plant response rating, Crabgrass” value ([12]; Rate 125 g/ha, Postemergence) was 8 and the “Crabgrass plant response rating” value ([12]; Rate 125 g/ha, Preemergence) was 3. The “Plant response rating, Crabgrass” value ([12]; Rate 250 g/ha, Postemergence) was 8, the “Plant response rating, Crabgrass” value ([12]; Rate 250 g/ha, Preemergence) was 1 and the “Plant response rating, Soybean” value (soybean (Glycine max); Rate 62 g/ha, Postemergence) was 3. For the same molecule, the “Soybean plant response rating” value (soybean (Glycine max); Rate 62 g/ha, Preemergence) was 0, the “Plant response rating, Soybean” value (soybean (Glycine max); Rate 125 g/ha, Postemergence) was 6 and the “Soybean plant response rating” value (soybean (Glycine max); Rate 125 g/ha, Preemergence) was 0. The “Plant response rating, Soybean” value (soybean (Glycine max); Rate 250 g/ha, Postemergence) was 6, the “Plant response rating, Soybean” value (soybean (Glycine max); Rate 250 g/ha, Preemergence) was 0 and the “Plant response rating, Morningglory” value ([13]; Rate 62 g/ha, Postemergence) was 8. For the same molecule, the “Morningglory plant response rating” value ([13]; Rate 62 g/ha, Preemergence) was 2, the “Plant response rating, Morningglory” value ([13]; Rate 125 g/ha, Postemergence) was 10 and the “Morningglory plant response rating” value ([13]; Rate 125 g/ha, Preemergence) was 4. For the same molecule, the “Plant response rating, Morningglory” value ([13]; Rate 250 g/ha, Postemergence) was 10, the “Plant response rating, Morningglory” value ([13]; Rate 250 g/ha, Preemergence) was 4 and the “Plant response rating, Sugarbeets” value ([14]; Rate 62 g/ha, Postemergence) was 10. The “Sugarbeets plant response rating” value ([14]; Rate 62 g/ha, Preemergence) was 2, the “Plant response rating, Sugarbeets” value ([14]; Rate 125 g/ha, Postemergence) was 10 and the “Sugarbeets plant response rating” value ([14]; Rate 125 g/ha, Preemergence) was 3. For the same molecule, the “Plant response rating, Sugarbeets” value ([14]; Rate 250 g/ha, Postemergence) was 10, the “Plant response rating, Sugarbeets” value ([14]; Rate 250 g/ha, Preemergence) was 9 and the “Plant response rating, Redroot pigweed” value ([15]; Rate 62 g/ha, Postemergence) was 9. For the same molecule, the “Redroot pigweed plant response rating” value ([15]; Rate 62 g/ha, Preemergence) was 0, the “Plant response rating, Redroot pigweed” value ([15]; Rate 125 g/ha, Postemergence) was 10 and the “Redroot pigweed plant response rating” value ([15]; Rate 125 g/ha, Preemergence) was 8. For the same molecule, the “Plant response rating, Redroot pigweed” value ([15]; Rate 250 g/ha, Postemergence) was 10 and the “Plant response rating, Redroot pigweed” value ([15]; Rate 250 g/ha, Preemergence) was 10.
